± gives the standard deviation of the averaged measurements.
Assays:
[1] = compound: CCC1=C[C@@H]2CN(C1)Cc1c([nH]c3ccccc13)[C@@](C(=O)OC)(c1cc3c(cc1OC)N(C)[C@H]1[C@@](O)(C(=O)OC)[C@H](OC(C)=O)[C@]4(CC)C=CCN5CC[C@]31[C@@H]54)C2 [VINORELBINE]; assay: surviving fraction relative to DMSO-only wells; higher = less growth inhibition; details: exposure time: 5 days
Procedure, shortened: (§1)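 Surviving fraction was calculated by normalising CellTiter-Glo luminescence to the median of DMSO-only wells. Tumour cell lines in log phase were seeded in 384-well plates at 250–500 cells per well, and 24 hours later were exposed continuously for five days to inhibitors at 0.5, 1, 5, 10, 50, 100, 500 and 1000 nM.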

[2] = compound: Cc1nc(Nc2n[nH]c3c2CN(C(=O)N[C@H](CN(C)C)c2ccccc2)C3(C)C)c2sccc2n1; assay: as above; details: exposure time: 5 days
Procedure, shortened: as §1

Row | Test System | surviving fraction ([1]; 0.5 nM) | surviving fraction ([1]; 1 nM) | surviving fraction ([1]; 5 nM) | surviving fraction ([1]; 10 nM) | surviving fraction ([1]; 50 nM) | surviving fraction ([1]; 100 nM) | surviving fraction ([1]; 500 nM) | surviving fraction ([1]; 1000 nM) | surviving fraction ([2]; 0.5 nM) | surviving fraction ([2]; 1 nM) | surviving fraction ([2]; 5 nM) | surviving fraction ([2]; 10 nM) | surviving fraction ([2]; 50 nM) | surviving fraction ([2]; 100 nM) | surviving fraction ([2]; 500 nM) | surviving fraction ([2]; 1000 nM)
1 | JIMT1 BREAST | 0.955 ± 0.036 | 0.9598 ± 0.0091 | 0.512 ± 0.025 | 0.304 ± 0.03 | 0.127 ± 0.011 | 0.117 ± 0.0056 | 0.113 ± 0.0063 | 0.11 ± 0.0053 | 0.993 ± 0.035 | 0.985 ± 0.03 | 0.888 ± 0.029 | 0.839 ± 0.047 | 0.559 ± 0.041 | 0.51 ± 0.041 | 0.398 ± 0.029 | 0.323 ± 0.0049
2 | KPD BONE | 0.953 ± 0.04 | 0.915 ± 0.055 | 0.96 ± 0.087 | 0.839 ± 0.093 | 0.5 ± 0.011 | 0.457 ± 0.035 | 0.445 ± 0.011 | 0.383 ± 0.026 | 0.632 ± 0.036 | 0.569 ± 0.027 | 0.425 ± 0.042 | 0.344 ± 0.011 | 0.259 ± 0.021 | 0.224 ± 0.027 | 0.0937 ± 0.01 | 0.058 ± 0.0053
3 | HMLE3 BREAST | 0.993 ± 0.017 | 0.965 ± 0.053 | 1.07 ± 0.044 | 0.987 ± 0.013 | 0.125 ± 0.029 | 0.053 ± 0.012 | 0.0317 ± 0.0067 | 0.0373 ± 0.005 | 1.01 ± 0.11 | 0.883 ± 0.026 | 0.295 ± 0.02 | 0.144 ± 0.0049 | 0.0967 ± 0.012 | 0.092 ± 0.0036 | 0.066 ± 0.0082 | 0.055 ± 0.002
4 | RDES SOFT TISSUE | 1.23 ± 0.18 | 1.15 ± 0.28 | 1.19 ± 0.18 | 1.24 ± 0.39 | 0.0793 ± 0.0093 | 0.071 ± 0.011 | 0.039 ± 0.0036 | 0.039 ± 0.005 | 0.764 ± 0.075 | 0.577 ± 0.1 | 1.16 ± 0.32 | 1.02 ± 0.14 | 0.756 ± 0.037 | 0.763 ± 0.1 | 0.525 ± 0.044 | 0.503 ± 0.094
5 | T47D BREAST | 1.03 ± 0.026 | 1.01 ± 0.03 | 0.735 ± 0.026 | 0.609 ± 0.023 | 0.356 ± 0.0061 | 0.341 ± 0.016 | 0.369 ± 0.025 | 0.373 ± 0.013 | 1.16 ± 0.034 | 1.12 ± 0.025 | 0.845 ± 0.033 | 0.879 ± 0.023 | 0.887 ± 0.032 | 0.87 ± 0.014 | 0.776 ± 0.013 | 0.528 ± 0.04
6 | HU09 BONE | 1.09 ± 0.035 | 1.02 ± 0.11 | 0.981 ± 0.1 | 0.558 ± 0.071 | 0.124 ± 0.015 | 0.0583 ± 0.0064 | 0.0547 ± 0.004 | 0.0747 ± 0.0045 | 0.811 ± 0.053 | 0.67 ± 0.084 | 0.473 ± 0.049 | 0.425 ± 0.081 | 0.381 ± 0.046 | 0.339 ± 0.028 | 0.174 ± 0.023 | 0.111 ± 0.007
7 | NCIH441 LUNG | 1.13 ± 0.13 | 1.11 ± 0.059 | 1.02 ± 0.072 | 0.877 ± 0.029 | 0.4817 ± 0.0045 | 0.422 ± 0.041 | 0.497 ± 0.054 | 0.423 ± 0.044 | 0.955 ± 0.014 | 0.938 ± 0.1 | 0.637 ± 0.057 | 0.632 ± 0.0076 | 0.463 ± 0.026 | 0.452 ± 0.04 | 0.379 ± 0.048 | 0.329 ± 0.018
8 | ZR751 BREAST | 1.17 ± 0.19 | 1.07 ± 0.1 | 0.7 ± 0.1 | 0.472 ± 0.07 | 0.492 ± 0.054 | 0.431 ± 0.057 | 0.297 ± 0.064 | 0.263 ± 0.041 | 0.872 ± 0.058 | 0.818 ± 0.052 | 0.575 ± 0.056 | 0.515 ± 0.0069 | 0.427 ± 0.029 | 0.463 ± 0.026 | 0.492 ± 0.041 | 0.462 ± 0.037
9 | S68 BREAST | 1.12 ± 0.4 | 0.785 ± 0.22 | 0.995 ± 0.23 | 0.572 ± 0.26 | 0.155 ± 0.034 | 0.143 ± 0.013 | 0.0783 ± 0.015 | 0.0627 ± 0.0081 | 1.04 ± 0.21 | 0.77 ± 0.013 | 0.481 ± 0.066 | 0.321 ± 0.04 | 0.288 ± 0.081 | 0.318 ± 0.0098 | 0.25 ± 0.014 | 0.234 ± 0.017
10 | CAL51 BREAST | 0.926 ± 0.047 | 0.945 ± 0.016 | 0.736 ± 0.035 | 0.452 ± 0.011 | 0.0567 ± 0.0027 | 0.045 ± 0.0027 | 0.0317 ± 0.0015 | 0.0318 ± 0.0033 | 0.898 ± 0.011 | 0.765 ± 0.047 | 0.281 ± 0.017 | 0.181 ± 0.0083 | 0.0752 ± 0.002 | 0.0562 ± 0.0013 | 0.0417 ± 0.0018 | 0.0317 ± 0.0014

Reference: the supplement of paper PMC6045584
